Patent US20230364051A1, “FORMULATIONS AND METHODS FOR IMPROVING AVIAN HEALTH” (CORNELL UNIVERSITY, priority 2022, published 2023)
Marks after values point to notes of the source that are not given here.

Experiments:
Type in all cases: in vivo, Gallus gallus
[1] = Pectoral muscle glycogen analysis after intraamniotic administration; conditions: for Average Glycogen: day 17, pectoral muscle at hatch
Protocol: (§1) Cornish-cross fertile broiler eggs (Gallus gallus, n = 39) were obtained from a commercial hatchery (Moyer’s chicks, Quakertown, PA, USA). The eggs were incubated under optimal conditions at the Cornell University Animal Science Poultry Farm Incubator [18]. All animal protocols were approved by Cornell University Institutional Animal Care and Use committee (IACUC #2020-0077). At day 17 of embryonic incubation, eggs containing viable embryos were weighed and divided into 5 groups, with all treatment groups assigned eggs of similar weight frequency distribution. Each group was then injected with the specific solution (1 mL per egg) with a 21-gauge needle into the amniotic fluid. Treatments in powder form were separately diluted in DI H2O. Two treatment groups (1.25, 2.5 wt. %), two controls (H2O and non-injected), and a positive control (5 wt. % inulin) were administered. After injection, the injection holes were sealed with cellophane tape and the eggs were placed in hatching baskets such that each treatment was equally represented at each incubator location. Immediately upon hatch (day 21), blood was taken for hemoglobin determination and all chicks were then euthanized by CO2 exposure. The small intestine, pectoral muscle, cecum, and liver were collected, immediately frozen in liquid nitrogen, and then stored in a -80° C. freezer until analysis.
Glycogen analysis was obtained from pectoralis muscle as previously described. Briefly, the frozen pectoral muscle samples were homogenized in 8 wt. % perchloric acid. Samples were then centrifuged at 12,000 × g for 15 minutes. The supernatant was removed, and 1.0 mL of petroleum ether was added to each tube. After mixing, the petroleum ether fraction was removed and samples from the bottom layer were transferred to a 96-well plate containing 300 µL of color reagent. All samples were read at a wavelength of 450 nm in an ELISA reader and the amount of glycogen was calculated according to a standard curve. The amount of glycogen present in pectoral sample was determined by multiplying the weight of the tissue by the amount of glycogen per 1 g of wet tissue.

[2] = test system: cecal microbiota pathways; experiment: Cecal 16S rRNA gene sequencing, LEfSe analysis; conditions: genistein treatment; cecal contents
Protocol: as §1, with “analysis. […]” for “analysis.”

ZIP6 = experiment: Duodenal gene expression by RT-qPCR: ZIP6; conditions: 2.5 wt. % genistein vs all other treatment groups, p < 0.05; duodenum
Protocol: Cornish-cross fertile broiler eggs (Gallus gallus, n = 39) were obtained from a commercial hatchery (Moyer’s chicks, Quakertown, PA, USA). The eggs were incubated under optimal conditions at the Cornell University Animal Science Poultry Farm Incubator [18]. All animal protocols were approved by Cornell University Institutional Animal Care and Use committee (IACUC #2020-0077). At day 17 of embryonic incubation, eggs containing viable embryos were weighed and divided into 5 groups, with all treatment groups assigned eggs of similar weight frequency distribution. Each group was then injected with the specific solution (1 mL per egg) with a 21-gauge needle into the amniotic fluid. Treatments in powder form were separately diluted in DI H2O. […]
Total RNA was extracted from 30 mg of the proximal duodenal (n=6) or liver tissues (n=6) using Qiagen RNeasy Mini Kit (Qiagen Inc., Valencia, CA) according to the manufacturer’s protocol. […] RNA was quantified by absorbance at 260-280 nm using a NanoDrop 2000 (ThermoFisher Scientific, Waltham, MA). […]
As previously described. cDNA was generated using a 20 uL reverse transcriptase (RT) reaction in a BioRad C1000 touch thermocycler using the Improm-II Reverse Transcriptase Kit (Catalog #A1250; Promega, Madison, WI, USA). […] Genomic DNA contamination was assessed using a RT-PCR assay for the reference of genes samples. […]

SMILES: O=c1c(-c2ccc(O)cc2)coc2cc(O)cc(O)c12 [Genistein, genistein]
- Average Glycogen ([1]; 1.25 wt. % genistein intraamniotic): 0.008 ± 0.003 ^ab mg/g
- Average Glycogen ([1]; 2.5 wt. % genistein intraamniotic): 0.015 ± 0.004 ^a mg/g
- Average glycogen vs control ([1]; genistein treated groups vs no injection, p > 0.05): no significant difference
- Pathways associated with de novo synthesis of vitamin B12 (LEfSe) [2]: enriched
- Gene expression of ZIP6 (ZIP6): significantly downregulated
